Data: US7608716B2, “Pyrazolonaphthyridine derivative” (Aska Pharmaceutical Co., Ltd., priority 2002, dated 2009)

Tested on: T1, PDE IV isozymes separated from U937 culture cells
T1 construct: PDE IV isozymes as used herein were separated from U937 culture cells by using an anion exchange chromatography
Assay: PDE IV inhibition ([3H]-cAMP hydrolysis)
Type: biochemical
Conditions: cAMP 1 μM substrate, 30° C., 20 minutes
Method: PDE IV isozymes as used herein were separated from U937 culture cells by using an anion exchange chromatography. Type IV PDE isozyme was admixed with ethylene glycol (EG) to adjust the final EG concentration to 30%, then stored at −20° C. and diluted when used. The enzymatic activity for PDE IV was measured using cAMP as a substrate.
Each test compound was dissolved in DMSO to adjust the final concentration to 1% (2.5 μl/tube).
Incubation Buffer Solution (pH7.5):
• Tris-HCl (50 mM), magnesium chloride (6 mM), dithiothreitol (2.5 mM), 5-nucleotidase (4 μg/ml), bovine serum albumin (0.23 mg/ml), and cAMP (1 μM).
A mixture of the aforementioned test compound solution and the buffer solution was incubated at 30° C. for 20 minutes. The reaction was quenched by admixing with 1 ml of anion exchange resin slurry (AG1-X8, 200-400 meshes, chloride form; Bio-Rad) to absorb unreacted substrates. After the reaction stopped, the mixture was centrifuged at 800×g for 10 minutes, and the resulting supernatant was collected with vials in 250 μl aliquots. To each vial was added 5 ml of ACS-II (scintillator, Amersham). The radioactivity was measured with a liquid scintillator counter for [^3H]-adenosine and set as the PDE IV activity.

IC50	SMILES
0.026 µM	COc1ccccc1Cc1n[nH]c2c1c(=O)n(-c1ccccc1)c1ncccc21 [Example No. 22, 3-(2-methoxybenzyl)-5-phenyl-1H-pyrazolo[4,3-c][1,8]naphthyridin-4 (5H)-one]
0.023 µM	O=c1c2c(Cc3ccccc3)n[nH]c2c2cccnc2n1-c1cccc([N+](=O)[O-])c1 [Example No. 56, 3-benzyl-5-(3-nitrophenyl)-1H-pyrazolo[4,3-c][1,8]-naphthyridin-4 (5H)-one]
0.082 µM	O=c1c2c(Cc3cccs3)n[nH]c2c2cccnc2n1-c1ccccc1 [Example No. 23, 3-(2-thienylmethyl)-5-phenyl-1H-pyrazolo[4,3-c][1,8]naphthyridin-4 (5H)-one]

Tested on: not given
Assay: not given
Conditions: not given

melting point	SMILES
322 °C (dec.)	O=c1c2c(CCc3cccnc3)n[nH]c2c2cccnc2n1-c1ccccc1 [Example 3, 5-phenyl-3-[2-(pyridin-3-yl)ethyl]-1H-pyrazolo[4,3-c][1,8]-naphthyridin-4 (5H)-one]
> 320 °C	O=c1c2c(Cc3cccc([N+](=O)[O-])c3)n[nH]c2c2cccnc2n1-c1ccccc1 (hydrate or solvate) [Example 25, 3-(3-nitrobenzyl)-5-phenyl-1H-pyrazolo[4,3-c][1,8]naphthyridin-4 (5H)-one]
219.5 to 224.5 °C	N#Cc1cccc(CCc2n[nH]c3c2c(=O)n(-c2ccccc2)c2ncccc32)c1 (hydrate or solvate) [Example 18, 3-[2-(3-cyanophenyl)ethyl]-5-phenyl-1H-pyrazolo[4,3-c][1,8]naphthyridin-4 (5H)-one]
278 to 280 °C	O=c1c2c(Cc3ccccc3O)n[nH]c2c2cccnc2n1-c1ccccc1 [Example 42, 3-(2-hydroxybenzyl)-5-phenyl-1H-pyrazolo[4,3-c][1,8]-naphthyridin-4 (5H)-one]
282 to 284 °C	O=c1c2c(Cc3cccs3)n[nH]c2c2cccnc2n1-c1ccccc1 (hydrate or solvate) [Example No. 23, 3-(2-thienylmethyl)-5-phenyl-1H-pyrazolo[4,3-c][1,8]naphthyridin-4 (5H)-one]
267 to 269 °C	O=c1c2c(CCc3ccncc3)n[nH]c2c2cccnc2n1-c1ccccc1 [Example 1, 5-phenyl-3-[2-(pyridin-4-yl)ethyl]-1H-pyrazolo[4,3-c][1,8]-naphthyridin-4 (5H)-one]
234 to 236 °C	COc1cccc(Cc2n[nH]c3c2c(=O)n(-c2ccccc2)c2ncccc32)c1 (hydrate or solvate) [Example 20, 3-(3-methoxybenzyl)-5-phenyl-1H-pyrazolo[4,3-c][1,8]naphthyridin-4 (5H)-one]
230 to 232 °C	COc1ccc(Cc2n[nH]c3c2c(=O)n(-c2ccccc2)c2ncccc32)cc1OC (hydrate or solvate) [Example 28, 3-(3,4-dimethoxybenzyl)-5-phenyl-1H-pyrazolo[4,3-c][1,8]naphthyridin-4 (5H)-one]
306 to 307 °C	CS(=O)(=O)Nc1ccc(Cc2n[nH]c3c2c(=O)n(-c2ccccc2)c2ncccc32)cc1 [Example 49, 3-(4-methanesulfonylaminobenzyl)-5-phenyl-1H-pyrazolo[4,3-c][1,8]naphthyridin-4 (5H)-one]
306 °C (dec.)	O=c1c2c(Cc3cccnc3)n[nH]c2c2cccnc2n1-c1ccccc1 [Example 4, 5-phenyl-3-(pyridin-3-yl)methyl-1H-pyrazolo[4,3-c][1,8]-naphthyridin-4 (5H)-one]
260 to 262 °C	O=c1c2c(CCc3ccc([N+](=O)[O-])cc3)n[nH]c2c2cccnc2n1-c1ccccc1 (hydrate or solvate) [Example 11, 3-[2-(4-nitrophenyl)ethyl]-5-phenyl-1H-pyrazolo[4,3-c][1,8]naphthyridin-4 (5H)-one]
318 to 320 °C (dec.)	O=c1c2c(Cc3ccccc3[N+](=O)[O-])n[nH]c2c2cccnc2n1-c1ccccc1 (hydrate or solvate) [Example No. 26, 3-(2-nitrobenzyl)-5-phenyl-1H-pyrazolo[4,3-c][1,8]naphthyridin-4 (5H)-one]
284 to 285 °C	CS(=O)(=O)Nc1ccc(CCc2n[nH]c3c2c(=O)n(-c2ccccc2)c2ncccc32)cc1 [Example 48, 3-[2-(4-methanesulfonylaminophenyl)ethyl]-5-phenyl-1H-pyrazolo[4,3-c][1,8]naphthyridin-4 (5H)-one]
245 to 247 °C	O=c1c2c(CCc3cccc([N+](=O)[O-])c3)n[nH]c2c2cccnc2n1-c1ccccc1 (hydrate or solvate) [Example 15, 3-[2-(3-nitrophenyl)ethyl]-5-phenyl-1H-pyrazolo[4,3-c][1,8]naphthyridin-4 (5H)-one]
315.5 to 316.5 °C	N#Cc1ccccc1CCc1n[nH]c2c1c(=O)n(-c1ccccc1)c1ncccc21 (hydrate or solvate) [Example 17, 3-[2-(2-cyanophenyl)ethyl]-5-phenyl-1H-pyrazolo[4,3-c][1,8]naphthyridin-4 (5H)-one]
302 to 308 °C	O=C(O)c1ccccc1CCc1n[nH]c2c1c(=O)n(-c1ccccc1)c1ncccc21 (hydrate or solvate) [Example 37, 3-[2-(2-carboxyphenyl)ethyl]-5-phenyl-1H-pyrazolo[4,3-c][1,8]naphthyridin-4 (5H)-one]
311.5 to 312.5 °C	CS(=O)(=O)c1ccc(Cc2n[nH]c3c2c(=O)n(-c2ccccc2)c2ncccc32)cc1 (hydrate or solvate) [Example 34, 3-(4-methylsulfonylbenzyl)-5-phenyl-1H-pyrazolo[4,3-c][1,8]naphthyridin-4 (5H)-one]
333 to 335 °C	O=c1c2c(CCc3ccccc3[N+](=O)[O-])n[nH]c2c2cccnc2n1-c1ccccc1 (hydrate or solvate) [Example 16, 3-[2-(2-nitrophenyl)ethyl]-5-phenyl-1H-pyrazolo[4,3-c][1,8]naphthyridin-4 (5H)-one]
318 to 320 °C	O=C(O)c1ccc(CCc2n[nH]c3c2c(=O)n(-c2ccccc2)c2ncccc32)cc1 (hydrate or solvate) [Example No. 14, 3-[2-(4-carboxyphenyl)ethyl]-5-phenyl-1H-pyrazolo[4,3-c][1,8]naphthyridin-4 (5H)-one]
300 to 302 °C	COc1ccc(Cc2n[nH]c3c2c(=O)n(-c2ccccc2)c2ncccc32)cc1 (hydrate or solvate) [Example No. 21, 3-(4-methoxybenzyl)-5-phenyl-1H-pyrazolo[4,3-c][1,8]naphthyridin-4 (5H)-one]
> 310 °C	Nc1ccc(CCc2n[nH]c3c2c(=O)n(-c2ccccc2)c2ncccc32)cc1 (hydrate or solvate) [Example No. 13, 3-[2-(4-aminophenyl)ethyl]-5-phenyl-1H-pyrazolo[4,3-c][1,8]naphthyridin-4 (5H)-one]
316 to 318 °C (dec.)	N#Cc1ccc(Cc2n[nH]c3c2c(=O)n(-c2ccccc2)c2ncccc32)cc1 (hydrate or solvate) [Example 31, 3-(4-cyanobenzyl)-5-phenyl-1H-pyrazolo[4,3-c][1,8]naphthyridin-4 (5H)-one]
300 to 305 °C	NC(=O)Nc1ccccc1CCc1n[nH]c2c1c(=O)n(-c1ccccc1)c1ncccc21 [Example 50, 5-phenyl-3-[2-(2-ureidophenyl)ethyl]-1H-pyrazolo[4,3-c][1,8]naphthyridin-4 (5H)-one]
159 to 161 °C	O=C(O)c1cccc(CCc2n[nH]c3c2c(=O)n(-c2ccccc2)c2ncccc32)c1 [Example 38, 3-[2-(3-carboxyphenyl)ethyl]-5-phenyl-1H-pyrazolo[4,3-c][1,8]naphthyridin-4 (5H)-one]
248 to 250 °C	COc1ccc(OC)c(Cc2n[nH]c3c2c(=O)n(-c2ccccc2)c2ncccc32)c1 (hydrate or solvate) [Example No. 27, 3-(2,5-dimethoxybenzyl)-5-phenyl-1H-pyrazolo[4,3-c][1,8]naphthyridin-4 (5H)-one]
263 to 264 °C	CCOC(=O)Cc1ccc(Cc2n[nH]c3c2c(=O)n(-c2ccccc2)c2ncccc32)cc1 (hydrate or solvate) [Example No. 32, 3-(4-ethoxycarbonylmethylbenzyl)-5-phenyl-1H-pyrazolo[4,3-c][1,8]naphthyridin-4 (5H)-one]
258 to 259 °C	COc1cc(Cc2n[nH]c3c2c(=O)n(-c2ccccc2)c2ncccc32)cc(OC)c1 (hydrate or solvate) [Example 29, 3-(3,5-dimethoxybenzyl)-5-phenyl-1H-pyrazolo[4,3-c][1,8]naphthyridin-4 (5H)-one]
266 to 267 °C	COc1ccc(Cc2n[nH]c3c2c(=O)n(-c2ccccc2)c2ncccc32)c(OC)c1 (hydrate or solvate) [Example No. 30, 3-(2,4-dimethoxybenzyl)-5-phenyl-1H-pyrazolo[4,3-c][1,8]naphthyridin-4 (5H)-one]
261 to 263 °C	Nc1cccc(-n2c(=O)c3c(CCc4ccncc4)n[nH]c3c3cccnc32)c1 [Example 8, 5-(3-aminophenyl)-3-[2-(pyridin-4-yl)ethyl]-1H-pyrazolo[4,3-c][1,8]naphthyridin-4 (5H)-one]
276 to 277 °C	COc1ccccc1Cc1n[nH]c2c1c(=O)n(-c1ccccc1)c1ncccc21 (hydrate or solvate) [Example No. 22, 3-(2-methoxybenzyl)-5-phenyl-1H-pyrazolo[4,3-c][1,8]naphthyridin-4 (5H)-one]
